{
  "source": "paper PMC8923172",
  "about": "(Antimicrobial Agents and Chemotherapy, 2022)",
  "test": "Serum biochemistry of rats at the end of treatment",
  "format": "in vivo, Sprague-Dawley rats",
  "settings": "median (IQR)",
  "note": "Marks after values point to notes of the source that are not given here. Residues, ends and D or L forms follow the SMILES beside them.",
  "data": [
    {"smiles": "CC[C@H](C)[C@@H]1NC(=O)[C@@H]2CSSC[C@H](NC(=O)[C@H](CCCNC(=N)N)NC(=O)[C@@H]3CSSC[C@H](NC1=O)C(=O)N[C@@H]([C@@H](C)O)C(=O)N[C@@H](CCCNC(=N)N)C(=O)NCC(=O)N[C@@H](Cc1ccccc1)C(=O)N3)C(=O)N[C@@H](CC(C)C)C(=O)N[C@H]1CSSC[C@H](NC(=O)[C@H](C(C)C)NC(=O)CNC(=O)[C@H](CCCNC(=N)N)NC(=O)[C@H](CCCNC(=N)N)NC1=O)C(=O)N[C@@H](CCCNC(=N)N)C(=O)N2", "note": "[RTD-1, Rhesus theta (θ) defensin-1] (HELM PEPTIDE1{G.F.C.R.C.L.C.R.R.G.V.C.R.C.I.C.T.R}$PEPTIDE1,PEPTIDE1,3:R3-16:R3|PEPTIDE1,PEPTIDE1,5:R3-14:R3|PEPTIDE1,PEPTIDE1,7:R3-12:R3|PEPTIDE1,PEPTIDE1,1:R1-18:R2$$$V2.0)", "values": [
      {"measurement": "A/G", "setting": "female, 5 mg/kg/day", "result": "2.1 (0.2)"},
      {"measurement": "ALP", "setting": "female, 5 mg/kg/day", "result": "92.0 (21.0) U/L"},
      {"measurement": "ALT", "setting": "female, 5 mg/kg/day", "result": "35.0 (7.0) U/L"},
      {"measurement": "AST", "setting": "female, 5 mg/kg/day", "result": "139.0 (35.0) U/L"},
      {"measurement": "Albumin", "setting": "female, 5 mg/kg/day", "result": "3.9 (0.3) g/dL"},
      {"measurement": "CK", "setting": "female, 5 mg/kg/day", "result": "792.0 (198.0) U/L"},
      {"measurement": "Calcium", "setting": "female, 5 mg/kg/day", "result": "9.8 (0.2) mg/dL"},
      {"measurement": "Chloride", "setting": "female, 5 mg/kg/day", "result": "105.0 (2.0) mmol/L"},
      {"measurement": "Cholesterol", "setting": "female, 5 mg/kg/day", "result": "55.0 (15.0) mg/dL"},
      {"measurement": "Creatinine", "setting": "female, 5 mg/kg/day", "result": "0.3 (0.0) mg/dL"},
      {"measurement": "GGT", "setting": "female, 5 mg/kg/day", "result": "0.0 (0.0) U/L"},
      {"measurement": "Globulin", "setting": "female, 5 mg/kg/day", "result": "1.8 (0.1) g/dL"},
      {"measurement": "Glucose", "setting": "female, 5 mg/kg/day", "result": "97.0 (16.0) mg/dL"},
      {"measurement": "Phos", "setting": "female, 5 mg/kg/day", "result": "7.3 (0.8) mg/dL"},
      {"measurement": "Potassium", "setting": "female, 5 mg/kg/day", "result": "4.9 (0.4) mmol/L"},
      {"measurement": "Sodium", "setting": "female, 5 mg/kg/day", "result": "143.0 (1.0) mmol/L"},
      {"measurement": "T-Bil", "setting": "female, 5 mg/kg/day", "result": "0.0 (0.0) mg/dL"},
      {"measurement": "TP", "setting": "female, 5 mg/kg/day", "result": "5.8 (0.5) g/dL"},
      {"measurement": "Triglycerides", "setting": "female, 5 mg/kg/day", "result": "25.0 (7.0) mg/dL"},
      {"measurement": "Urea N", "setting": "female, 5 mg/kg/day", "result": "20.0 (2.0) mg/dL"},
      {"measurement": "A/G", "setting": "female, 10 mg/kg/day", "result": "2.2 (0.2)"},
      {"measurement": "ALP", "setting": "female, 10 mg/kg/day", "result": "109.5 (30.5) U/L"},
      {"measurement": "ALT", "setting": "female, 10 mg/kg/day", "result": "32.5 (6.0) U/L"},
      {"measurement": "AST", "setting": "female, 10 mg/kg/day", "result": "122.0 (14.3) U/L"},
      {"measurement": "Albumin", "setting": "female, 10 mg/kg/day", "result": "3.9 (0.1) g/dL"},
      {"measurement": "CK", "setting": "female, 10 mg/kg/day", "result": "473.5 (211.3) U/L"},
      {"measurement": "Calcium", "setting": "female, 10 mg/kg/day", "result": "10.0 (0.3) mg/dL"},
      {"measurement": "Chloride", "setting": "female, 10 mg/kg/day", "result": "105.0 (2.0) mmol/L"},
      {"measurement": "Cholesterol", "setting": "female, 10 mg/kg/day", "result": "55.0 (26.5) mg/dL"},
      {"measurement": "Creatinine", "setting": "female, 10 mg/kg/day", "result": "0.3 (0.0) mg/dL"},
      {"measurement": "GGT", "setting": "female, 10 mg/kg/day", "result": "0.0 (0.0) U/L"},
      {"measurement": "Globulin", "setting": "female, 10 mg/kg/day", "result": "1.8 (0.2) g/dL"},
      {"measurement": "Glucose", "setting": "female, 10 mg/kg/day", "result": "99.0 (5.5) mg/dL"},
      {"measurement": "Phos", "setting": "female, 10 mg/kg/day", "result": "7.1 (0.8) mg/dL"},
      {"measurement": "Potassium", "setting": "female, 10 mg/kg/day", "result": "5.1 (0.5) mmol/L"},
      {"measurement": "Sodium", "setting": "female, 10 mg/kg/day", "result": "142.5 (1.0) mmol/L"},
      {"measurement": "T-Bil", "setting": "female, 10 mg/kg/day", "result": "0.0 (0.0) mg/dL"},
      {"measurement": "TP", "setting": "female, 10 mg/kg/day", "result": "5.7 (0.4) g/dL"},
      {"measurement": "Triglycerides", "setting": "female, 10 mg/kg/day", "result": "26.0 (11.5) mg/dL"},
      {"measurement": "Urea N", "setting": "female, 10 mg/kg/day", "result": "21.0 (1.8) mg/dL"},
      {"measurement": "A/G", "setting": "female, 20 mg/kg, day 2", "result": "3.0 (0.4)^c^,^d^,^e"},
      {"measurement": "ALP", "setting": "female, 20 mg/kg, day 2", "result": "142.0 (34.5)^d^,^e U/L"},
      {"measurement": "ALT", "setting": "female, 20 mg/kg, day 2", "result": "62.0 (28.5)^c^,^d^,^e U/L"},
      {"measurement": "AST", "setting": "female, 20 mg/kg, day 2", "result": "397.0 (345.5)^d^,^e U/L"},
      {"measurement": "Albumin", "setting": "female, 20 mg/kg, day 2", "result": "3.0 (0.6)^d^,^e g/dL"},
      {"measurement": "CK", "setting": "female, 20 mg/kg, day 2", "result": "1,506.0 (2,604.5) U/L"},
      {"measurement": "Calcium", "setting": "female, 20 mg/kg, day 2", "result": "10.3 (0.6)^c^,^d mg/dL"},
      {"measurement": "Chloride", "setting": "female, 20 mg/kg, day 2", "result": "104.0 (3.0) mmol/L"},
      {"measurement": "Cholesterol", "setting": "female, 20 mg/kg, day 2", "result": "52.0 (6.5) mg/dL"},
      {"measurement": "Creatinine", "setting": "female, 20 mg/kg, day 2", "result": "0.5 (0.2)^c^,^d^,^e mg/dL"},
      {"measurement": "GGT", "setting": "female, 20 mg/kg, day 2", "result": "4.0 (5.5)^c^,^d^,^e U/L"},
      {"measurement": "Globulin", "setting": "female, 20 mg/kg, day 2", "result": "1.0 (0.3)^c^,^d^,^e g/dL"},
      {"measurement": "Glucose", "setting": "female, 20 mg/kg, day 2", "result": "218.0 (70.0)^c^,^d^,^e mg/dL"},
      {"measurement": "Phos", "setting": "female, 20 mg/kg, day 2", "result": "9.3 (5.0) mg/dL"},
      {"measurement": "Potassium", "setting": "female, 20 mg/kg, day 2", "result": "4.9 (0.7) mmol/L"},
      {"measurement": "Sodium", "setting": "female, 20 mg/kg, day 2", "result": "141.0 (2.5)^c mmol/L"},
      {"measurement": "T-Bil", "setting": "female, 20 mg/kg, day 2", "result": "0.0 (0.0) mg/dL"},
      {"measurement": "TP", "setting": "female, 20 mg/kg, day 2", "result": "3.9 (0.8)^c^,^d^,^e g/dL"},
      {"measurement": "Triglycerides", "setting": "female, 20 mg/kg, day 2", "result": "106.0 (36.5)^c^,^d^,^e mg/dL"},
      {"measurement": "Urea N", "setting": "female, 20 mg/kg, day 2", "result": "20.0 (3.0) mg/dL"},
      {"measurement": "A/G", "setting": "male, 5 mg/kg/day", "result": "2.2 (0.3)"},
      {"measurement": "ALP", "setting": "male, 5 mg/kg/day", "result": "212.0 (40.3) U/L"},
      {"measurement": "ALT", "setting": "male, 5 mg/kg/day", "result": "40.0 (9.8) U/L"},
      {"measurement": "AST", "setting": "male, 5 mg/kg/day", "result": "133.0 (34.0) U/L"},
      {"measurement": "Albumin", "setting": "male, 5 mg/kg/day", "result": "3.8 (0.0) g/dL"},
      {"measurement": "CK", "setting": "male, 5 mg/kg/day", "result": "765.5 (395.5) U/L"},
      {"measurement": "Calcium", "setting": "male, 5 mg/kg/day", "result": "9.8 (0.4) mg/dL"},
      {"measurement": "Chloride", "setting": "male, 5 mg/kg/day", "result": "104.5 (1.8) mmol/L"},
      {"measurement": "Cholesterol", "setting": "male, 5 mg/kg/day", "result": "70.5 (10.3) mg/dL"},
      {"measurement": "Creatinine", "setting": "male, 5 mg/kg/day", "result": "0.2 (0.1) mg/dL"},
      {"measurement": "GGT", "setting": "male, 5 mg/kg/day", "result": "0.0 (0.0) U/L"}
    ]}
  ]
}
